In patent US11078213B2, “Thienopyrimidine compound, preparation method thereof, pharmaceutical composition and application thereof” (HONGYUN BIOTECH CO., LTD., priority 2016, dated 2021):

Columns and labels:
wild-type BaF3 = assay: Growth inhibition of wild-type BaF3 cells (broad-spectrum toxicity); type: cell-based; conditions: Mus musculus, read-out: Growth inhibitory activity IC50, BaF3
Procedure: (§6) The cell plate with uniformly mixed compound was cultured in a cell culture incubator (37° C.; 5% CO2) for 48 h, then 20 μL of MTS reaction solution was added, uniformly mixed and incubated in the cell culture incubator (37° C.; 5% CO2) for 1-4 hr; OD values at 490 nm were measured by a microplate reader (VARIOSKAN FLASH, Thermo). Three parallels were set in each group of experiments, with 0.1% (a final concentration) DMSO as a negative control, and a medium without cells or compounds as a blank control.
(§7) 4) IC50 calculation: The semi-inhibitory concentration of the compound acting on cell growth was calculated using GradPad Prism 5 software according to the measured cell growth inhibition rate.

[1] = tested on: kinase ALK-positive lung cancer cell line H3122; assay: Growth inhibitory activity on tumor cells H3122; type: cell-based
Procedure: (§1) If the tumor cells tested were suspension cells, the assay was carried out in accordance with the method (1) above.
(§2) If the tumor cells tested were adherent cells, cells were incubated 1000-10000 cells/well in a 96-well culture plate until adherent, and then compounds were added. Others were carried out in accordance with the method (1) above.

[2] = biological target: T1, EML4-ALK(G1202R)-Ba/F3 xenograft (Homo sapiens, UniProt Q9UM73, G1202R); assay: Nude mouse xenograft model of EML4-ALK(G1202R)-Ba/F3; type: in vivo, BALB/c (nu/nu) nude mice; conditions: 10 consecutive days
T1 construct: EML4 (Q9HC35) fusion partner; expressed in transfected cells; host or cells: Ba/F3; the other entry of the earlier key: EML4 (Q9HC35, Echinoderm microtubule-associated protein-like 4)
Procedure: (§3) In this test, BALB/c (nu/nu) nude mice were used, male and female in half, 4-6 weeks old, weighing about 18±2 g, and fed in SPF level environment, strictly sterile operation. The animals to be tested were adapted to the experimental environment 1 week in advance, free access to food and water, and maintained a 12-hour circadian rhythm.
The EML4-ALK(G1202R)-Ba/F3 cells used in the test were cultured with 10% fetal bovine serum in PRMI-1640 medium, and placed in a 37° C., 5% CO2 incubator environment.
A subcutaneous transplantation model of tumor nude mice was established by using cell inoculation method: cells in logarithmic growth phase were collected by filtration, washed with PBS after centrifugation, and resuspended as a single cell suspension with PRMI-1640 medium, 1×10^6 cells/200 μL per nude mouse. The cell suspension was injected subcutaneously in the vicinity of right anterior axillary of a nude mouse using a 1 mL syringe (No. 4.5 needle). When the tumor of tumor-bearing mice grew to a measurable size, the tumor volume was measured daily. When the tumor volume reached about 150 mm^3, the mice were randomly divided into 3 groups, 8 mice each group, and administration was started on the day of grouping. The administration component was IB-1 60 mg/kg (once/day), 40 mg/kg (twice/day, bid), orally administered for 10 consecutive days, and negative control group was administered an equal amount of solvent. Animal weight and tumor size were measured daily during the test. The state of the mice was recorded daily. After the last administration, the mice were anesthetized with 5% chloral hydrate and killed 6 hours. The tumors were taken, weighed and photographed for recording. Tumor Volume (TV) was calculated as: TV=½×a×b^2, where a, b represent long diameter and short diameter of tumor, respectively.

[3] = tested on: anaplastic large cell lymphoma Karpas-299; assay: Growth inhibitory activity on tumor cells Karpas-299; type: cell-based
Procedure: as §1, §2

[4] = biological target: EML4-ALK-G1202R BaF3 cells (Homo sapiens, UniProt Q9UM73, G1202R); assay: Growth inhibition of BaF3 cells stably transfected with ALK point mutation G1202R; conditions: read-out: Growth inhibitory activity IC50, EML4-ALK-G1202R
Procedure: as §6, §7

NPM-ALK-BaF3 = biological target: T2, NPM-ALK-BaF3 (Homo sapiens, UniProt Q9UM73); assay: Growth inhibition of BaF3 cells stably transfected with kinase NPM-ALK (MTS); type: cell-based; conditions: compound concentration 3.3 μM, read-out: cell growth inhibition rate, NPM-ALK
T2 construct: NPM (nuclear phosphoprotein / nucleophosmin, NPM1, P06748) fusion partner; expressed in transfected cells; host or cells: BaF3; the other entry of the earlier key: NPM1 (P06748, Nucleophosmin)
Procedure: (§4) The specific test method is given as follows:
(§5) 2) Reagent: MTS reaction solution (containing 2 mg/mL of MTS [3-(4,5-dimethylthiazol-2-yl)-5-(3-carboxymethoxyphenyl)-2-(4-sulfophenyl)-2H-tetra zolium, inner Salt]; 100 µg/mL PES ([…])).

[5] = biological target: EML4-ALK-S1206Y BaF3 cells (Homo sapiens, UniProt Q9UM73, S1206Y); assay: Growth inhibition of BaF3 cells stably transfected with ALK point mutation S1206Y; conditions: read-out: Growth inhibitory activity IC50, EML4-ALK-S1206Y
Procedure: as §6, §7

[6] = biological target: EML4-ALK-I1171T BaF3 cells (Homo sapiens, UniProt Q9UM73, I1171T); assay: Growth inhibition of BaF3 cells stably transfected with ALK point mutation I1171T; conditions: read-out: Growth inhibitory activity IC50, EML4-ALK-I1171T
Procedure: as §6, §7

NCI-H3122 xenograft = assay: Nude mouse xenograft model of non-small cell lung cancer H3122 cells; type: in vivo, BALB/c (nu/nu) nude mice; conditions: 18 consecutive days
Procedure: as §3
The NCI-H3122 cells used in the test were cultured with 10% fetal bovine serum in PRMI-1640 medium, and placed in a 37° C., 5% CO2 incubator environment.
A subcutaneous transplantation model of tumor nude mice was established by using cell inoculation method: cells in logarithmic growth phase were collected by filtration, washed with PBS after centrifugation, and resuspended as a single cell suspension with PRMI-1640 medium, 5×10^6 cells/200 μL per nude mouse. The cell suspension was injected subcutaneously in the vicinity of right anterior axillary of a nude mouse using a 1 mL syringe (No. 4.5 needle). When the tumor of tumor-bearing mice grew to a measurable size, the tumor volume was measured daily. When the tumor volume reached about 150 mm^3, the mice were randomly divided into 4 groups, 5 mice each group, and administration was started on the day of grouping. […] The administration was conducted for 18 consecutive days. Animal weight and tumor size were measured every other day during the test. The state of the mice was recorded daily. After the last administration, the mice were anesthetized with 5% chloral hydrate and killed 6 hours. The tumors were taken, weighed and photographed for recording. Tumor Volume (TV) was calculated as: TV=½×a×b^2, where a, b represent long diameter and short diameter of tumor, respectively.

EML4-ALK-BaF3 = biological target: T3, EML4-ALK-BaF3 (Homo sapiens, UniProt Q9UM73); assay: Growth inhibition of BaF3 cells stably transfected with kinase EML4-ALK (MTS); type: cell-based; conditions: compound concentration 3.3 μM, read-out: cell growth inhibition rate, EML4-ALK
T3 construct: EML4 (echinoderm microtubule associated protein like 4, Q9HC35) fusion partner; expressed in transfected cells; host or cells: BaF3; the other entry of the earlier key: EML4 (Q9HC35, Echinoderm microtubule-associated protein-like 4)
Procedure: as §4, §5

[7] = biological target: EML4-ALK-G1269A BaF3 cells (Homo sapiens, UniProt Q9UM73, G1269A); assay: Growth inhibition of BaF3 cells stably transfected with ALK point mutation G1269A; conditions: read-out: Growth inhibitory activity IC50, EML4-ALK-G1269A
EML4-ALK-G1269A BaF3 cells, sequence (Q9UM73 1058-1620 G1269A limits assumed): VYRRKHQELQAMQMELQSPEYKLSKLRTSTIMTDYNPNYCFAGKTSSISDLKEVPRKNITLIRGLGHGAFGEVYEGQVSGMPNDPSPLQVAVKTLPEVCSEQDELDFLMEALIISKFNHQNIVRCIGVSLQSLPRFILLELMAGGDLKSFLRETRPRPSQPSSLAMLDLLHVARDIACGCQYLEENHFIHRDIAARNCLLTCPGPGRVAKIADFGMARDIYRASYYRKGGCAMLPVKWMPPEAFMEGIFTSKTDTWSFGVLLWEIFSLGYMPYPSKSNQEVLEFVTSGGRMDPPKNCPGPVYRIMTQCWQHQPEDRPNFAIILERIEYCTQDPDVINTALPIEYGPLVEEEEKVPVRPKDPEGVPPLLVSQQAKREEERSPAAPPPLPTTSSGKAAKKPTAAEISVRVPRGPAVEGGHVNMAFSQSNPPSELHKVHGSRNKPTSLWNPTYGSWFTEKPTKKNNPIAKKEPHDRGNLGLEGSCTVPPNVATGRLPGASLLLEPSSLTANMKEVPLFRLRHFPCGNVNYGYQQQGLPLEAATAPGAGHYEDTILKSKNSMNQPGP
Procedure: as §6, §7

T1 sequence (Q9UM73 1058-1620 G1202R limits assumed): as the sequence (Q9UM73 1058-1620 G1269A limits assumed) above, with G145R, A212G counted along it
EML4-ALK-I1171T BaF3 cells, sequence (Q9UM73 1058-1620 I1171T limits assumed): as the sequence (Q9UM73 1058-1620 G1269A limits assumed) above, with I114T, A212G counted along it
EML4-ALK-S1206Y BaF3 cells, sequence (Q9UM73 1058-1620 S1206Y limits assumed): as the sequence (Q9UM73 1058-1620 G1269A limits assumed) above, with S149Y, A212G counted along it
EML4-ALK-G1202R BaF3 cells, sequence (Q9UM73 1058-1620 G1202R limits assumed): as the sequence (Q9UM73 1058-1620 G1269A limits assumed) above, with G145R, A212G counted along it
T2 sequence (Q9UM73 with tags, fused parts or gaps): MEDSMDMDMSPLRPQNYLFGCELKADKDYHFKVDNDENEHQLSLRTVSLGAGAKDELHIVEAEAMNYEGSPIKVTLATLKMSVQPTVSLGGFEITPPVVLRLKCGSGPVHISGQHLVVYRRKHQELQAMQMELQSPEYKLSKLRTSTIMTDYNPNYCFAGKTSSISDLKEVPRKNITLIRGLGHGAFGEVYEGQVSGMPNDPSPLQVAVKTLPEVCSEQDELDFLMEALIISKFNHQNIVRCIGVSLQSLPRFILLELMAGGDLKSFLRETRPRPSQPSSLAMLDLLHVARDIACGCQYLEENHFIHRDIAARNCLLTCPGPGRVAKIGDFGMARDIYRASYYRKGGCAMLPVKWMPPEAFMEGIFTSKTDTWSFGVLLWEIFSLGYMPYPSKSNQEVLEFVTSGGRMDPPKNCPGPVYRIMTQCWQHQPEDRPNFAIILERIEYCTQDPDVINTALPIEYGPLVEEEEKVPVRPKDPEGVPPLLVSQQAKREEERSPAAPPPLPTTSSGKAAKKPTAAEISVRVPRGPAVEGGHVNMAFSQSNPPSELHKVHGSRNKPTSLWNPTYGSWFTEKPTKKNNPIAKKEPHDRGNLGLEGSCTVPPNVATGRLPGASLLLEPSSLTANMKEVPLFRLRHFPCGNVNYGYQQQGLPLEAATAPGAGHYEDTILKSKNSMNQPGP
T3 sequence (Q9UM73 1058-1620 limits assumed): as the sequence (Q9UM73 1058-1620 G1269A limits assumed) above, with A212G counted along it

Q: What does the source list for `COc1cc2c(cc1Nc1nc(Nc3ccccc3S(=O)(=O)C(C)C)c3sccc3n1)N(C(=O)CN(C)C)CC2` [IB-1]?
A: IC50 (wild-type BaF3): 1600 nM; inhibitory activity against H3122 (in words) [1]: good inhibitory activity; IC50 ([1]; Homo sapiens, NCI-H3122, H3122 tumor cells): 15 nM; tumor growth ([2]; 40 mg/kg (twice/day, bid) orally): significantly inhibited tumor growth; tumor growth ([2]; 60 mg/kg (once/day) orally): significantly inhibited tumor growth; body weight during administration ([2]; drug group): no significant changes in body weight; side effects ([2]; drug group): no obvious side effects; inhibitory activity against Karpas-299 (in words) [3]: good inhibitory activity; IC50 ([3]; Homo sapiens, Karpas-299 tumor cells): < 4 nM; IC50 [4]: 10 nM; inhibition at 3.3 µM (NPM-ALK-BaF3): 96.7%; IC50 [5]: < 4 nM; IC50 [6]: < 4 nM; tumor growth (NCI-H3122 xenograft; 30 mg/kg (once/day) orally): significantly inhibited tumor growth; tumor growth (NCI-H3122 xenograft; 50 mg/kg (once/day) orally): significantly inhibited tumor growth; body weight during administration (NCI-H3122 xenograft; drug group): no significant changes in body weight; side effects (NCI-H3122 xenograft; drug group): no obvious side effects; inhibition at 3.3 µM (EML4-ALK-BaF3): 87.3%; IC50 [7]: < 4 nM
